These results are taken from patent publication US20080181971A1, “Combination Cancer Treatments Comprising Elsamitrucin and Other Agents” (priority 2007, published 2008).

The test system of this test is HCT116 human colon carcinoma. Nature of the test: HCT116-e256 study: tumor growth delay of subcutaneous HCT116 xenografts in nude mice. Type of test: in vivo. Conditions: for Median TTE (time to endpoint): endpoint 2000 mm^3, control 25.1; for tumor growth delay (TGD): percent of median TTE of untreated group. As for the experimental part: Tumors were measured twice weekly during the experiment, and each animal was euthanized when its tumor reached the endpoint volume of 2000 mm^3 or on the last day of the study (Day 59), whichever came first.
Treatment outcome was assessed by tumor growth delay (TGD), defined as the difference in median time to endpoint tumor burden in a treatment group compared to a control group.
a. Mice. […] The mice were housed on irradiated ALPHA-Dri® Bed-O'Cobs® Laboratory Animal Bedding in static microisolators on a 12-hour light cycle at 21-22° C. (70-72° F.) and 40-60% humidity. Testing facilities complied with the recommendations of the Guide for Care and Use of Laboratory Animals with respect to restraint, husbandry, surgical procedures, feed and fluid regulation, and veterinary care. The animal care and use program at the testing facility is accredited by AAALAC, which assures compliance with accepted standards for the used and care of laboratory animals.
b. Tumor Implantation. […] On the day of tumor implant, the cells were trypsinized, harvested by centrifugation and resuspended in phosphate buffered saline. Each mouse received 5×10^6 HCT116 tumor cells in 0.2 mL implanted subcutaneously in the right flank, and tumor growth was monitored. […] Tumor volume was calculated using the formula: […]
c. Therapeutic Agents. […] The 0.5 mg/mL dosing solution was prepared by 2-fold dilution in distilled water. Both solutions were prepared fresh for each dose administered.
Dosing solutions of 0.75 and 1.5 mg/mL were formulated fresh for each dose by diluting the stock solution ten-fold with D5W.
d. Treatment Plan. […] Note the routes of administration and schedules detailed in Table 10. All doses were given in volumes of 0.2 mL per 20 g of body weight (10 mL/kg), and were scaled to the body weight of the animal.
e. Endpoint. Tumors were measured twice weekly using calipers. Each animal was euthanized when its tumor reached the endpoint size of 2000 mm^3 or at the conclusion of the study on Day 59, whichever came first. The time to endpoint (TTE) for each mouse was calculated from the following equation: […]
where b is the intercept and m is the slope of the line obtained by linear regression of a log-transformed tumor growth data set. The data set was comprised of the first observation that exceeded the study endpoint volume and the three consecutive observations that immediately preceded the attainment of the endpoint volume. […] Animals classified as NTR (non-treatment-related) deaths due to accident (NTRa) or due to unknown causes (NTRu) were excluded from TTE calculations (and all further analyses). Animals classified as TR (treatment-related) deaths or NTRm (non-treatment-related death due to metastasis) were assigned a TTE value equal to the day of death.
Treatment outcome was evaluated by tumor growth delay (TGD), which is defined as the increase in the median time to endpoint (TTE) in a treatment group compared to the control group:
Treatment may cause partial regression (PR) or complete regression (CR) of the tumor in an animal. […] An animal with a CR response at the termination of a study is additionally classified as a tumor-free survivor (TFS). Regression responses were monitored and recorded.
g. Statistical and Graphical Analyses. The Logrank test was used to analyze the significance of the differences between the TTE values of treated and control groups. Two-tailed statistical analyses were conducted at significance level P=0.05.
Median tumor growth curves show group median tumor volumes as a function of time. When an animal exited the study due to tumor size, the final tumor volume recorded for the animal was included with the data used to calculate the group median tumor volume at subsequent time points. Curves were truncated after 50% of the animals in a group had exited the study, or after the second TR death in a group, whichever came first (see the exception in FIG. 8).

[1] abbreviates: Groups 2,4,6,8,10: elsamitrucin 10 mg/kg ip q4d x3, paclitaxel 15 mg/kg iv qod x5, cisplatin 2.7 mg/kg ip qd x5.
Where [2] appears, read: Groups 3,5,7,9,11: elsamitrucin 5 mg/kg ip q4d x3, paclitaxel 7.5 mg/kg iv qod x5, cisplatin […] ip qd x5.

For `N.N.[Cl][Pt][Cl]` [Cisplatin, cisplatin], under setting [1], the “% TGD = [(T − C)/C] × 100” value came to 23%, the “No. of CR (complete regression)” value is on record as 0, the “No. of PR (partial regression)” value is given as 0 and the “No. of TFS (tumor free survivor)” value was 0. In addition, under setting [1], the “T − C (difference between median TTE of treated versus control group)” value turned out to be 5.7 days and the “Median TTE (time to endpoint)” value is 30.8 days. Besides, under setting [2], the “% TGD = [(T − C)/C] × 100” value is 1%, the “No. of CR (complete regression)” value was 0, the “No. of PR (partial regression)” value is 0 and the “No. of TFS (tumor free survivor)” value was determined as 0. Also, under setting [2], the “T − C (difference between median TTE of treated versus control group)” value came to 0.2 days and the “Median TTE (time to endpoint)” value stood at 25.3 days. Moreover, the “tumor growth delay (TGD)” value (higher dose level) stood at 23%. In addition, the “tumor growth delay (TGD)” value (lower dose level) is given as 1%.
`CC(=O)O[C@H]1C(=O)[C@@]2(C)[C@H]([C@H](OC(=O)c3ccccc3)[C@]3(O)C[C@H](OC(=O)[C@H](O)[C@@H](NC(=O)c4ccccc4)c4ccccc4)C(C)=C1C3(C)C)[C@]1(OC(C)=O)CO[C@@H]1C[C@@H]2O` [Paclitaxel, paclitaxel]: under setting [1], the “% TGD = [(T − C)/C] × 100” value came out at 59%, the “No. of CR (complete regression)” value is listed as 0, the “No. of PR (partial regression)” value was determined as 1 and the “No. of TFS (tumor free survivor)” value is 0. For the same compound, under setting [1], the “T − C (difference between median TTE of treated versus control group)” value was 14.7 days and the “Median TTE (time to endpoint)” value is 39.8 days. Further, under setting [2], the “% TGD = [(T − C)/C] × 100” value came out at 22%, the “No. of CR (complete regression)” value stood at 0, the “No. of PR (partial regression)” value is 0 and the “No. of TFS (tumor free survivor)” value is 0. Besides, under setting [2], the “T − C (difference between median TTE of treated versus control group)” value stood at 5.6 days and the “Median TTE (time to endpoint)” value was 30.7 days. Moreover, the partial regression response (higher dose level, animals of ten) is on record as 1/10.
Regarding `CO[C@@H]1[C@@H](N)[C@@H](O[C@H]2[C@H](Oc3cccc4c(O)c5c(=O)oc6ccc(C)c7c(=O)oc(c34)c5c67)O[C@H](C)[C@H](O)[C@]2(C)O)O[C@H](C)[C@@H]1O` [Elsamitrucin, benzo(h)(1)benzopyrano(5,4,3-cde)(1)ebnzopyran-5,12-dione,10((2-O-(2-amino-2,6-dideoxy-3-O-methyl-alpha-D-galactopyranosyl)-6-deoxy-3-C-methyl-beta-D-galactopyranosyl)oxy)-6-hydroxy-1-methyl], the “MTV (n) Day 59 (median tumor volume)” value (Groups 2,4,6,8,10: elsamitrucin 10 mg/kg ip q4d x3, paclitaxel 15 mg/kg iv qod x5, animals remaining on Day 59, n in brackets) is listed as 88 (1) mm^3. Besides, under setting [1], the “% TGD = [(T − C)/C] × 100” value is listed as 8%, the “No. of CR (complete regression)” value is on record as 0, the “No. of PR (partial regression)” value is 0 and the “No. of TFS (tumor free survivor)” value was 0. In addition, under setting [1], the “T − C (difference between median TTE of treated versus control group)” value stood at 2.0 days and the “Median TTE (time to endpoint)” value is 27.1 days. Under setting [2], the “% TGD = [(T − C)/C] × 100” value was determined as 6%, the “No. of CR (complete regression)” value is recorded as 0, the “No. of PR (partial regression)” value is on record as 0 and the “No. of TFS (tumor free survivor)” value was 0. Moreover, under setting [2], the “T − C (difference between median TTE of treated versus control group)” value turned out to be 1.4 days and the “Median TTE (time to endpoint)” value was determined as 26.5 days. Moreover, where the note is “elsamitrucin monotherapy groups, 10 or 5 mg/kg i.p. q4d x3”, the tumor regressions entry is reported as “No tumor regressions”.
